Results: patent US6617335B1, “Preparation and drug composition of bis-benzyl-isoquinoline class alkaloids” (Kanghong USA, Inc., priority 2002, dated 2003)
Blank lines part the entries; values can stand above or below the compound they belong to.

Key:
[1] = test system: Salmonella typhimurium TA97, TA98, TA100 and TA102; test: Mutagenicity test (Ames method); settings: plate method, dosages 100, 20, 4, 0.8, 0.16
Description: Determinations were carried out the using Salmonella typhimurium […] mutants types TA97, TA98, TA100 and TA102 to detect the mutagenicity of said compound. Mutagenicity was determined according to the method of Ames. (Ames, B., et al. (1973). An improved bacterial test system for the detection and classification of mutagens and carcinogens. Proc. Natl. Acad. Sci. USA 70: 782-786). In the plate method with dosages of 100, 20, 4, 0.8, and 0.16, compared with the blank control, (self made compound S9), counting the number of reversed mutative colony changed, to decide the mutagenicity of the test compound.

P388/adr [2] = test: In vivo study of inhibition of MDR activity, nude mice xenografted with P388/adr
Description: Method: Using defined characteristics of […] P388/adr cell line in a nude mice model to determine the inhibition of MDR activity. Quantitative subcutaneous injection of P388 cell into the armpit of nude mice was followed for a certain period of time. […] The formulations and a cepharanthine control were administered by intraperitoneal injection for 2 to 4 times a day, and the animals consecutively observed for 10 days. Life span and survival rates were calculated.

in vivo = test: in vivo
Description: Method: LDs50 values for the compounds of formula (I) were calculated according to the method of Gaddum and Gu Han Yi.

P388/adr cell line = test: Isotopic determination of vincristine concentration in the P388/adr cell line; format: cell-based; settings: P388/adr MDR cells; for inhibition of MDR activity / intracellular isotope marker concentration compared with verapamil: three levels; for intracellular vinca alkaloid concentration, combined therapy vs other known MDR inhibitors (tetrandrine, fangchinoline, cepharanthine): low, middle and high dosages
Description: Method: By using an isotope marker, differences were observed between intracellular vincristine concentrations during combined therapy and single therapy. […] The dosages were arranged in low, middle and high groups in parallel studies, results were calculated in dpm of vincristine concentration in the cell.

P388/adr [3] = test: In vitro reversal of multi drug resistance to vinblastine in P388/adr cells; format: cell-based; settings: vinblastine against multi drug resistance cell line P388/adr
Description: The IC50 value was in the range of 2-3 μg/mL, the reversal index against P388 was around 20, and most of the compounds completely reversed multi drug resistance of vinblastine-treated tumor cells.

melting point: 184 to 185 °C
Compound: COc1cc(Br)c2cc1Oc1ccc(cc1)C[C@H]1c3cc(c(OC)cc3CCN1C)Oc1c(OC)c(OC)c(Br)c3c1[C@H](C2)N(C)CC3 [Example 9, 5,14-dibromo-tetrandrine]

Compound: COc1ccc2cc1Oc1ccc(cc1)C[C@H]1c3cc(c(OC)cc3CCN1C)Oc1c(OC)c(OC)c(Br)c3c1[C@H](C2)N(C)CC3 [Example 8, 5-bromo-tetrandrine]
mutagenicity (Ames) [1]: void of mutagenicity
inhibition of MDR activity of vinblastine against P388/adr compared with cepharanthine (VIII) (P388/adr [2]): significantly stronger
increase of survival rates by the combined therapy (P388/adr [2]; combined therapy with vinca alkaloid vs monotherapy, intraperitoneal, observed 10 days): 37.7%
LD50 at 1 month (in vivo; in vivo, route not stated at this place, read-out: acute toxicity LD50): > 125 mg/kg
LDs50, intraperitoneal administration (in vivo; intraperitoneal): > 368 mg/kg bodyweight
LDs50, intravenous administration (in vivo; intravenous): > 125 mg/kg bodyweight
inhibition of MDR activity / intracellular isotope marker concentration compared with verapamil (P388/adr cell line): corresponding to verapamil
inhibition of MDR activity / intracellular isotope marker concentration compared with verapamil (P388/adr cell line; listed as Example No. 8): comparable to the available agent verapamil
intracellular vinca alkaloid concentration, combined therapy vs monotherapy (P388/adr cell line; isotope marker): significantly higher
intracellular vinca alkaloid concentration, combined therapy vs other known MDR inhibitors (tetrandrine, fangchinoline, cepharanthine) (P388/adr cell line; isotope marker): significantly higher
intracellular vinca alkaloid concentration, combined therapy vs other known MDR inhibitors (tetrandrine, fangchinoline, cepharanthine) (P388/adr cell line; isotope marker, listed as Example No. 8): higher

melting point: 175 to 176 °C
Compound: CCCOc1c(OC)cc2c3c1Oc1cc4c(cc1OC)CCN(C)[C@H]4Cc1ccc(cc1)Oc1cc(ccc1OC)C[C@@H]3N(C)CC2

IC50 value (P388/adr [3]): 11.7 µg/mL
Compound: cepharanthine
